ChEMBL document CHEMBL1649501, “Integration of pharmacokinetic and pharmacodynamic indices of orbifloxacin in beagle dogs after a single intravenous and intramuscular administration” (Antimicrob Agents Chemother, 2009)
Converted amounts (≈) assume the structure as drawn.

What was measured:
[1] = Ratio of AUC (0 to 24 hrs) to MIC for bactericidal action in Beagle dog infected with Staphylococcus intermedius clinical isolate at 2.5 mg/kg, im; type: functional; settings: route intramuscular
[2] = Ratio of AUC (0 to 24 hrs) to MIC for bacterial elimination in Beagle dog infected with Staphylococcus intermedius clinical isolate at 2.5 mg/kg, im; type: functional; settings: route intramuscular
[3] = Tmax in Beagle dog at 2.5 mg/kg, im; type: ADME, organism-based, Canis lupus familiaris; parameters: dose 2.5 mg/kg, route intramuscular; settings: in vivo
[4] = Cmax in Beagle dog at 2.5 mg/kg, im; type: ADME, organism-based, Canis lupus familiaris; parameters: dose 2.5 mg/kg, route intramuscular; settings: in vivo
[5] = AUC (0 to 24 hrs) in Beagle dog at 2.5 mg/kg, iv; type: ADME, organism-based, Canis lupus familiaris; parameters: time < 24 hr, dose 2.5 mg/kg, route intravenous; settings: plasma
[6] = AUC (0 to 24 hrs) in Beagle dog at 2.5 mg/kg, im; type: ADME, organism-based, Canis lupus familiaris; parameters: time < 24 hr, dose 2.5 mg/kg, route intramuscular; settings: plasma
[7] = AUC (0 to infinity) in Beagle dog at 2.5 mg/kg, iv; type: ADME, organism-based, Canis lupus familiaris; parameters: time infinity, dose 2.5 mg/kg, route intravenous; settings: plasma
[8] = AUC (0 to infinity) in Beagle dog at 2.5 mg/kg, im; type: ADME, organism-based, Canis lupus familiaris; parameters: time infinity, dose 2.5 mg/kg, route intramuscular; settings: plasma
[9] = Elimination rate constant in Beagle dog at 2.5 mg/kg, iv; type: ADME, organism-based, Canis lupus familiaris; parameters: dose 2.5 mg/kg, route intravenous; settings: in vivo
[10] = Elimination rate constant in Beagle dog at 2.5 mg/kg, im; type: ADME, organism-based, Canis lupus familiaris; parameters: dose 2.5 mg/kg, route intramuscular; settings: in vivo
[11] = Terminal half life in Beagle dog at 2.5 mg/kg, iv; type: ADME, organism-based, Canis lupus familiaris; parameters: dose 2.5 mg/kg, route intravenous; settings: in vivo, read-out: beta t1/2 (converted)
[12] = Terminal half life in Beagle dog at 2.5 mg/kg, im; type: ADME, organism-based, Canis lupus familiaris; parameters: dose 2.5 mg/kg, route intramuscular; settings: in vivo, read-out: beta t1/2 (converted)
[13] = Mean residence time (0 to 24 hrs) in Beagle dog at 2.5 mg/kg, iv; type: ADME, organism-based, Canis lupus familiaris; parameters: dose 2.5 mg/kg, route intravenous; settings: in vivo
[14] = Mean residence time (0 to 24 hrs) in Beagle dog at 2.5 mg/kg, im; type: ADME, organism-based, Canis lupus familiaris; parameters: dose 2.5 mg/kg, route intramuscular; settings: in vivo
[15] = Mean residence time (0 to infinity) in Beagle dog at 2.5 mg/kg, iv; type: ADME, organism-based, Canis lupus familiaris; parameters: dose 2.5 mg/kg, route intravenous; settings: in vivo
[16] = Mean residence time (0 to infinity) in Beagle dog at 2.5 mg/kg, im; type: ADME, organism-based, Canis lupus familiaris; parameters: dose 2.5 mg/kg, route intramuscular; settings: in vivo
[17] = Apparent volume of distribution in Beagle dog at 2.5 mg/kg, iv; type: ADME, organism-based, Canis lupus familiaris; parameters: dose 2.5 mg/kg, route intravenous; settings: in vivo, read-out: Vz
Canis familiaris = assay: Mean absorption time in Beagle dog at 2.5 mg/kg, im; type: ADME, organism-based, Canis lupus familiaris; parameters: dose 2.5 mg/kg, route intramuscular; settings: in vivo
[18] = Volume of distribution at steady state in Beagle dog at 2.5 mg/kg, iv; type: ADME, organism-based, Canis lupus familiaris; parameters: dose 2.5 mg/kg, route intravenous; settings: in vivo
[19] = Clearance in Beagle dog at 2.5 mg/kg, iv; type: ADME, organism-based, Canis lupus familiaris; parameters: dose 2.5 mg/kg, route intravenous; settings: in vivo
[20] = Bioavailability in Beagle dog at 2.5 mg/kg, im; type: ADME, organism-based, Canis lupus familiaris; settings: in vivo
Escherichia coli [21] = assay: Antibacterial activity against Escherichia coli by broth microdilution method; type: functional
Staphylococcus aureus [22] = assay: Antibacterial activity against Staphylococcus aureus by broth microdilution method; type: functional
[23] = tested on: Staphylococcus intermedius; assay: Antibacterial activity against Staphylococcus intermedius by broth microdilution method; type: functional
Staphylococcus aureus [24] = assay: Antibacterial activity against Staphylococcus aureus ATCC 29213 by broth microdilution method; type: functional
Proteus mirabilis [25] = assay: Antibacterial activity against Proteus mirabilis by broth microdilution method; type: functional
[26] = Ratio of AUC (0 to 24 hrs) to MIC in Beagle dog infected with Escherichia coli at 2.5 mg/kg, iv; type: functional
[27] = Ratio of AUC (0 to 24 hrs) to MIC in Beagle dog infected with Staphylococcus aureus at 2.5 mg/kg, iv; type: functional
[28] = Ratio of AUC (0 to 24 hrs) to MIC in Beagle dog infected with Staphylococcus intermedius at 2.5 mg/kg, iv; type: functional
[29] = Ratio of AUC (0 to 24 hrs) to MIC in Beagle dog infected with Proteus mirabilis at 2.5 mg/kg, iv; type: functional
[30] = Ratio of AUC (0 to 24 hrs) to MIC in Beagle dog infected with Escherichia coli at 2.5 mg/kg, im; type: functional; settings: route intramuscular
[31] = Ratio of AUC (0 to 24 hrs) to MIC in Beagle dog infected with Staphylococcus aureus at 2.5 mg/kg, im; type: functional; settings: route intramuscular
[32] = Ratio of AUC (0 to 24 hrs) to MIC in Beagle dog infected with Staphylococcus intermedius at 2.5 mg/kg, im; type: functional; settings: route intramuscular
[33] = Ratio of AUC (0 to 24 hrs) to MIC in Beagle dog infected with Proteus mirabilis at 2.5 mg/kg, im; type: functional; settings: route intramuscular
[34] = T>MIC in Beagle dog infected with Escherichia coli at 2.5 mg/kg, iv; type: functional
[35] = T>MIC in Beagle dog infected with Staphylococcus aureus at 2.5 mg/kg, iv; type: functional
[36] = T>MIC in Beagle dog infected with Staphylococcus intermedius at 2.5 mg/kg, iv; type: functional
[37] = T>MIC in Beagle dog infected with Proteus mirabilis at 2.5 mg/kg, iv; type: functional
[38] = T>MIC in Beagle dog infected with Escherichia coli at 2.5 mg/kg, im; type: functional; settings: route intramuscular
[39] = T>MIC in Beagle dog infected with Staphylococcus aureus at 2.5 mg/kg, im; type: functional; settings: route intramuscular
[40] = T>MIC in Beagle dog infected with Staphylococcus intermedius at 2.5 mg/kg, im; type: functional; settings: route intramuscular
[41] = T>MIC in Beagle dog infected with Proteus mirabilis at 2.5 mg/kg, im; type: functional; settings: route intramuscular
[42] = Ratio of Cmax to MIC in Beagle dog infected with Escherichia coli at 2.5 mg/kg, im; type: functional; settings: route intramuscular
[43] = Ratio of Cmax to MIC in Beagle dog infected with Staphylococcus aureus at 2.5 mg/kg, im; type: functional; settings: route intramuscular
[44] = Ratio of Cmax to MIC in Beagle dog infected with Staphylococcus intermedius at 2.5 mg/kg, im; type: functional; settings: route intramuscular
[45] = Ratio of Cmax to MIC in Beagle dog infected with Proteus mirabilis at 2.5 mg/kg, im; type: functional; settings: route intramuscular
Escherichia coli [46] = assay: Antibacterial activity against Escherichia coli after 30 hrs by broth microdilution method; type: functional, organism-based
Staphylococcus aureus [47] = assay: Antibacterial activity against Staphylococcus aureus after 30 hrs by broth microdilution method; type: functional, organism-based
[48] = tested on: Staphylococcus intermedius; assay: Antibacterial activity against Staphylococcus intermedius after 30 hrs by broth microdilution method; type: functional, organism-based
Proteus mirabilis [49] = assay: Antibacterial activity against Proteus mirabilis after 30 hrs by broth microdilution method; type: functional, organism-based
[50] = tested on: Staphylococcus intermedius; assay: Antibacterial activity against Staphylococcus intermedius clinical isolate infected in Beagle dog assessed as bacterial load at 2.5 mg/kg, im after 24 hrs; type: functional; settings: route intramuscular
[51] = Ratio of AUC (0 to 24 hrs) to MIC for bacteriostatic action in Beagle dog infected with Staphylococcus intermedius clinical isolate at 2.5 mg/kg, im; type: functional; settings: route intramuscular
[52] = Ratio of AUC (0 to 24 hrs) to MIC50 in Beagle dog infected with Staphylococcus intermedius clinical isolate at 2.5 mg/kg, im; type: functional; settings: route intramuscular

C[C@@H]1CN(c2c(F)c(F)c3c(=O)c(C(=O)O)cn(C4CC4)c3c2F)C[C@H](C)N1 [ORBIFLOXACIN]
RatioAUC/MIC [1]: 31.8 | RatioAUC/MIC [2]: 40 | Tmax [3]: 1.15 h | Cmax [4]: 1150 ng/mL | AUC(0-t) at 24 h [5]: 8070 ng·h/mL | AUC(0-t) at 24 h [6]: 8370 ng·h/mL | AUC(0-inf) [7]: 8210 ng·h/mL | AUC(0-inf) [8]: 8490 ng·h/mL | k el [9]: 4.72e-05 s⁻¹ | k el [10]: 4.72e-05 s⁻¹ | half-life [11]: 254 min | half-life [12]: 237 min | MRT last [13]: 4.71 h | MRT last [14]: 5.31 h | MRT inf [15]: 5.13 h | MRT inf [16]: 5.69 h | Vd [17]: 1.95 L/kg | MAT (Canis familiaris): 0.51 h | Vd [18]: 1.61 L/kg | clearance [19]: 5.17 mL/min/kg | bioavailability [20]: 100% | MIC (Escherichia coli [21]): 0.06 µg/mL (≈ 0.152 µM) | MIC (Staphylococcus aureus [22]): 0.25 µg/mL (≈ 0.632 µM) | MIC [23]: 0.25 µg/mL (≈ 0.632 µM) | MIC (Staphylococcus aureus [24]): 0.5 µg/mL (≈ 1.26 µM) | MIC (Proteus mirabilis [25]): 0.5 µg/mL (≈ 1.26 µM) | RatioAUC/MIC [26]: 134.6 | RatioAUC/MIC [27]: 32.3 | RatioAUC/MIC [28]: 32.3 | RatioAUC/MIC [29]: 16.1 | RatioAUC/MIC [30]: 129.8 | RatioAUC/MIC [31]: 31.1 | RatioAUC/MIC [32]: 31.1 | RatioAUC/MIC [33]: 15.5 | T>MIC [34]: 21.1 h | T>MIC [35]: 8.75 h | T>MIC [36]: 8.75 h | T>MIC [37]: 5.6 h | T>MIC [38]: 21.3 h | T>MIC [39]: 9.15 h | T>MIC [40]: 9.15 h | T>MIC [41]: 6.5 h | Ratio [42]: 19.1 | Ratio [43]: 4.61 | Ratio [44]: 4.61 | Ratio [45]: 2.3 | Activity (Escherichia coli [46]): Dose-dependent effect | Activity (Staphylococcus aureus [47]): Dose-dependent effect | Activity [48]: Dose-dependent effect | Activity (Proteus mirabilis [49]): Dose-dependent effect | CFU/ml [50]: 2.06 | RatioAUC/MIC [51]: 26.7 | Ratio [52]: 29
